Tests used:
[1] = system: antibodies in sera from SARS patients (sera 1a, 1b, 2, 6, 37, 62, London, SARS-yellow, SARS-green); type: binding, human; design: Binding of serum 6 to linear peptides of protein X1 of SARS-CoV Urbani / Binding of serum 37 to linear peptides of protein X1 of SARS-CoV Urbani / Binding of serum 6 to looped/cyclic peptide (PEPSCAN-ELISA) / Binding of serum 37 to looped/cyclic peptide (PEPSCAN-ELISA) / Binding of serum 37 to looped/cyclic peptides of protein X1 of SARS-CoV Urbani / Binding of serum 6 to linear peptides of protein X2 / Binding of serum 37 to linear peptides of protein X2 / Binding of serum 37 to looped/cyclic peptides of protein X2 of SARS-CoV Urbani / Binding of serum 6 to linear peptides of protein M of SARS-CoV Urbani / Binding of serum 37 to linear peptides of protein M of SARS-CoV Urbani / Binding of serum 6 to looped/cyclic peptides of protein M of SARS-CoV Urbani / Binding of serum 37 to looped/cyclic peptides of protein M of SARS-CoV Urbani / Binding of serum 6 to linear peptides of protein X3 of SARS-CoV Urbani / Binding of serum 37 to linear peptides of protein X3 of SARS-CoV Urbani / Binding of serum 37 to looped/cyclic peptides of protein X3 of SARS-CoV Urbani / Binding of serum 6 to linear peptides of protein X4 of SARS-CoV Urbani / Binding of serum 37 to linear peptides of protein X4 of SARS-CoV Urbani / Binding of serum 37 to looped/cyclic peptides of protein X4 of SARS-CoV Urbani / Binding of serum 6 to linear peptides of protein X5 of SARS-CoV Urbani / Binding of serum 37 to linear peptides of protein X5 of SARS-CoV Urbani / Binding of serum 37 to looped/cyclic peptides of protein X5 of SARS-CoV Urbani / Binding of serum 6 to linear peptides of protein N of SARS-CoV Urbani / Binding of serum 37 to linear peptides of protein N of SARS-CoV Urbani / Binding of serum 6 to linear peptide (PEPSCAN-ELISA) / Binding of serum 1a to looped/cyclic peptides of protein N of SARS-CoV Urbani / Binding of serum 1b to looped/cyclic peptides of protein N of SARS-CoV Urbani / Binding of serum 2 to looped/cyclic peptides of protein N of SARS-CoV Urbani / Binding of serum 6 to looped/cyclic peptides of protein N of SARS-CoV Urbani / Binding of serum 37 to looped/cyclic peptides of protein N of SARS-CoV Urbani / Binding of serum 62 to looped/cyclic peptides of protein N of SARS-CoV Urbani / Binding of serum London to looped/cyclic peptides of protein N of SARS-CoV Urbani / Binding of serum SARS-green to looped/cyclic peptides of protein N of SARS-CoV Urbani: unit not given here
[2] = system: control sera (pooled serum of ten healthy LUMC hospital workers; commercial negative donor pooled serum from the Dutch bloodbank); type: binding, human; design: Binding of Control serum LUMC to linear peptides / Binding of Control serum Blood-bank to linear peptides / Binding of Control serum LUMC to looped peptides / Binding of Control Serum Blood-Bank to Looped peptides / Binding of Control serum LUMC to linear peptides of the protein M of SARS-CoV Urbani / Binding of Control serum Blood-bank to linear peptides of the protein M of SARS-CoV Urbani / Binding of Control serum LUMC to looped peptides of the protein M of SARS-CoV Urbani / Binding of Control Serum Blood-Bank to Looped peptides of the protein M of SARS-CoV Urbani: unit not given here
[3] = system: rabbit serum obtained by immunizing a rabbit with the SARS-CoV strain Frankfurt 1; type: binding; design: Binding of a rabbit serum to linear peptides / Binding of a rabbit serum to looped peptides / Rabbit serum linear peptides / Rabbit serum looped peptides / Binding of a rabbit serum to linear peptides of protein N of SARS-CoV Urbani (Rabbit serum linear peptides) / Binding of a rabbit serum to looped/cyclic peptides of protein N of SARS-CoV Urbani (Rabbit serum looped peptides): unit not given here
[4] = system: recombinant human anti-SARS-CoV antibody 03-018; type: binding; design: Binding of antibody 03-018 to linear peptides of the N protein of SARS-CoV Urbani / Binding of antibody 03-018 to looped/cyclic peptides of the N protein of SARS-CoV Urbani: unit not given here

Sequence | Binding of serum 1a to linear peptides of protein N of SARS-CoV Urbani [1] | Binding of serum 1a to looped/cyclic peptides of protein N of SARS-CoV Urbani [1] | Binding of serum 1b to linear peptides of protein N of SARS-CoV Urbani [1] | Binding of serum 1b to looped/cyclic peptides of protein N of SARS-CoV Urbani [1] | Binding of serum 2 to linear peptides of protein N of SARS-CoV Urbani [1] | Binding of serum 2 to looped/cyclic peptides of protein N of SARS-CoV Urbani [1] | Binding of serum 6 to linear peptides of protein N of SARS-CoV Urbani [1] | Binding of serum 6 to looped/cyclic peptides of protein N of SARS-CoV Urbani [1] | Binding of serum 37 to linear peptides of protein N of SARS-CoV Urbani [1] | Binding of serum 37 to looped/cyclic peptides of protein N of SARS-CoV Urbani [1] | Binding of serum 62 to linear peptides of protein N of SARS-CoV Urbani [1] | Binding of serum 62 to looped/cyclic peptides of protein N of SARS-CoV Urbani [1] | Binding of serum London to linear peptides of protein N of SARS-CoV Urbani [1] | Binding of serum London to looped/cyclic peptides of protein N of SARS-CoV Urbani [1] | Binding of serum SARS-green to linear peptides of protein N of SARS-CoV Urbani [1] | Binding of serum SARS-green to looped/cyclic peptides of protein N of SARS-CoV Urbani [1] | Binding of serum SARS-yellow to linear peptides of protein N of SARS-CoV Urbani [1] | Binding of serum SARS-yellow to looped/cyclic peptides of protein N of SARS-CoV Urbani [1] | Binding of a rabbit serum to linear peptides of protein N of SARS-CoV Urbani (Rabbit serum linear peptides) [3] | Binding of a rabbit serum to looped/cyclic peptides of protein N of SARS-CoV Urbani (Rabbit serum looped peptides) [3] | other results
AIKLDDKDPQFKDNV | 0.2 | 0.3 | 0.1 | 0.2 | 0.2 | 0.3 | 0.2 | 0.2 | 0.8 | 0.5 | 0.9 | 0.4 | 0.6 | 0.4 | 0.7 | 0.4 | 0.6 | 0.2 | 0.1 | 0.3 | Control Serum Blood-Bank Looped peptides [2]: 0.5; Control serum Blood-bank linear peptides [2]: 0.7; Control serum LUMC linear peptides [2]: 0.8; Control serum LUMC looped peptides [2]: 0.5; Binding of antibody 03-018 to linear peptides of the N protein of SARS-CoV Urbani [4]: 0.1; Binding of antibody 03-018 to looped/cyclic peptides of the N protein of SARS-CoV Urbani [4]: 0.2
WFTALTQHGKEELRF | 0.3 | 0.4 | 0.2 | 0.2 | 0.3 | 0.4 | 0.2 | 0.2 | 1.2 | 0.8 | 0.9 | 0.6 | 0.7 | 0.4 | 0.4 | 0.5 | 0.5 | 0.4 | 0.1 | 0.3 | Binding of Control Serum Blood-Bank to Looped peptides [2]: 0.6; Binding of Control serum Blood-bank to linear peptides [2]: 0.8; Binding of Control serum LUMC to linear peptides [2]: 0.7; Binding of Control serum LUMC to looped peptides [2]: 0.5; Binding of antibody 03-018 to linear peptides of the N protein of SARS-CoV Urbani [4]: 0.1; Binding of antibody 03-018 to looped/cyclic peptides of the N protein of SARS-CoV Urbani [4]: 0.2
